In US10434079B2, “Compositions and methods for the treatment of fatty acid metabolism disorders” (The Children's Hospital of Philadelphia, priority 2013, dated 2019):
“Also recorded” adds a separate entry of the source.

Assays:
ob/ob mice = assay: Liver histology and liver/serum triglyceride concentrations in ob/ob mice; type: in vivo, mouse; conditions: GSNO-injected vs PBS-injected ob/ob mice
Text: Formalin-fixed liver sections were stained with Trichrome Stain Kit (Sigma) according to the manufacturer's instructions. Triglycerides were extracted from liver according to the Folch method (Folch et al. (1957) J. Biol. Chem., 226:497-509). Serum and liver triglyceride concentrations were quantified with a triglyceride quantification kit following the manufacturer's instructions (Abcam). Leptin-deficient mice develop liver steatosis spontaneously under normal chow diet starting at 4 to 5 weeks of life that is characterized by a diminished rate of palmitate oxidation and accumulation of fat droplets in the form of triglycerides within the hepatocytes (Brix et al. (2002) Mol. Genet. Metab., 75:219-226; de Oliveira et al. (2008) J. Am. Coll. Nutr., 27:299-305). […] This significant reduction in the rate of palmitoyl-CoA oxidation indicated a deficiency in mitochondrial β-oxidation of fatty acids. […] GSNO was used to deliver nitric oxide equivalents because of the extensive use of this pharmacological agent in cellular models to modify proteins by S-nitrosylation […] cellular permeability (Hara et al. (2005) Nat. Cell Biol., 7:665-674; Chung et al. (2004) Science 304:1328-1331). […] Moreover, the restoration of palmitoyl-CoA oxidation in GSNO-injected ob/ob mice was associated with a significant reduction of the concentration of liver triglycerides. […]

VLCAD = biological target: T1, VLCAD (Mus musculus, UniProt P50544)
T1 sequence (P50544 42-656): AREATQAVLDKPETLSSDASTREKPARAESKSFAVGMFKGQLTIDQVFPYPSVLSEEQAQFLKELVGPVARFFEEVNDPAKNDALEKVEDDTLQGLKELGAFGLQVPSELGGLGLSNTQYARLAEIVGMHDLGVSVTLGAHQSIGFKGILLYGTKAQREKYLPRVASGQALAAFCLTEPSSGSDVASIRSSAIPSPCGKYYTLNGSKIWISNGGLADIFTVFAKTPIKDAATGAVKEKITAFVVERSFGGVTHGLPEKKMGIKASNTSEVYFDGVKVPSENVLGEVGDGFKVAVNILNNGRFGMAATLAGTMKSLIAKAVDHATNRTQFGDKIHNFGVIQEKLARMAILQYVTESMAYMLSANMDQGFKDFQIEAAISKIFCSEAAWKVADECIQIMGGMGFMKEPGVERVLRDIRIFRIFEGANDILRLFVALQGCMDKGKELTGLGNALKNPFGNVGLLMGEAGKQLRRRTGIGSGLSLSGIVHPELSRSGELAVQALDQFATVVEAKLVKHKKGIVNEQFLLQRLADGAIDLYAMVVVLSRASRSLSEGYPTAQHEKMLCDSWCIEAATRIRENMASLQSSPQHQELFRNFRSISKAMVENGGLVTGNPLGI

VLCAD specific activity of untreated eNOS-/- relative to eNOS-/- liver tissue treated with GSNO (VLCAD; 5 μM GSNO 30 minutes prior to the assay, 0.25 mM palmitoyl-CoA): significantly lower | KM for VLCAD enzymatic activity, treated vs untreated homogenate (VLCAD; eNOS-/- liver homogenates treated ex vivo with GSNO): increased five-fold | S-nitrosylation of VLCAD at Cys238 ex vivo (VLCAD; eNOS-/- liver homogenates treated with GSNO): readily modified
Compound: N[C@@H](CCC(=O)N[C@@H](CSN=O)C(=O)NCC(=O)O)C(=O)O [GSNO, S-nitrosoglutathione]
fat deposits in liver slices (trichrome histology) (ob/ob mice): diminished fatty acid deposition; also recorded: fewer fat deposits
